≈ marks a conversion by molar mass, not a printed value.
Key:
Format in all cases: functional
Staphylococcus aureus [1] = assay: In vitro antimicrobial activity against Staphylococcus aureus 209P NIHJ JCI
[2] = system: Staphylococcus epidermidis; assay: In vitro antimicrobial activity against methicillin resistant Staphylococcus epidermidis MB5181
Escherichia coli = assay: In vitro antimicrobial activity against Escherichia coli NIHJ JC2
Staphylococcus aureus [3] = assay: In vitro antimicrobial activity against methicillin resistant Staphylococcus aureus pMS520
Pseudomonas aeruginosa [4] = assay: In vitro antimicrobial activity against Pseudomonas aeruginosa AK 109
Pseudomonas aeruginosa [5] = assay: In vitro antimicrobial activity against ceftazidime resistant Pseudomonas aeruginosa AKR 17
Rattus norvegicus = assay: Epileptogenicity at 200 ug in rat intracerebroventricular assay.
Sus scrofa = species: Sus scrofa; assay: Porcine renal DHP-1 susceptibility.

Structure (SMILES) | MIC (Staphylococcus aureus [1]) | MIC [2] | MIC (Escherichia coli) | MIC (Staphylococcus aureus [3]) | MIC (Pseudomonas aeruginosa [4]) | MIC (Pseudomonas aeruginosa [5]) | Epileptogenicity (Rattus norvegicus) | Susceptibility (Sus scrofa)
C[C@@H](O)[C@H]1C(=O)N2C(C(=O)O)=C(S[C@@H]3CN[C@@H](c4ccc(C5(N)CC5)cc4)C3)[C@H](C)[C@H]12 | < 0.006 µg/mL | 1.56 µg/mL (≈ 3.52 µM) | 0.025 µg/mL (≈ 0.0564 µM) | 1.56 µg/mL (≈ 3.52 µM) | 3.13 µg/mL (≈ 7.06 µM) | 6.25 µg/mL (≈ 14.1 µM) | 0 | 0.32
CCNCc1ccc([C@H]2C[C@H](SC3=C(C(=O)O)N4C(=O)[C@H]([C@@H](C)O)[C@H]4[C@H]3C)CN2)cc1 | < 0.006 µg/mL | 1.56 µg/mL (≈ 3.5 µM) | 0.025 µg/mL (≈ 0.0561 µM) | 1.56 µg/mL (≈ 3.5 µM) | 1.56 µg/mL (≈ 3.5 µM) | 6.25 µg/mL (≈ 14 µM) | 0 | 0.44
C[C@@H](O)[C@H]1C(=O)N2C(C(=O)O)=C(S[C@@H]3CN[C@@H](c4ccc(C(C)(C)N)cc4)C3)[C@H](C)[C@H]12 | < 0.006 µg/mL | 1.56 µg/mL (≈ 3.5 µM) | 0.05 µg/mL (≈ 0.112 µM) | 1.56 µg/mL (≈ 3.5 µM) | 1.56 µg/mL (≈ 3.5 µM) | 6.25 µg/mL (≈ 14 µM) | 0 | 0.37
CCSCC(N)c1ccc([C@H]2C[C@H](SC3=C(C(=O)O)N4C(=O)[C@H]([C@@H](C)O)[C@H]4[C@H]3C)CN2)cc1 (stereo partly drawn) | < 0.006 µg/mL | 0.78 µg/mL (≈ 1.59 µM) | 0.025 µg/mL (≈ 0.0508 µM) | 1.56 µg/mL (≈ 3.17 µM) | 3.13 µg/mL (≈ 6.37 µM) | 12.5 µg/mL (≈ 25.4 µM) |  | 0.27
C[C@@H](O)[C@H]1C(=O)N2C(C(=O)O)=C(S[C@@H]3CN[C@@H](c4ccc(C(N)CCO)cc4)C3)[C@H](C)[C@H]12 (stereo partly drawn) | < 0.006 µg/mL | 6.25 µg/mL (≈ 13.5 µM) | 0.05 µg/mL (≈ 0.108 µM) | 3.13 µg/mL (≈ 6.78 µM) | 1.56 µg/mL (≈ 3.38 µM) | 12.5 µg/mL (≈ 27.1 µM) | 0 | 
CCC(N)c1ccc([C@H]2C[C@H](SC3=C(C(=O)O)N4C(=O)[C@H]([C@@H](C)O)[C@H]4[C@H]3C)CN2)cc1 (stereo partly drawn) | < 0.006 µg/mL | 1.56 µg/mL (≈ 3.5 µM) | 0.1 µg/mL (≈ 0.224 µM) | 1.56 µg/mL (≈ 3.5 µM) | 3.13 µg/mL (≈ 7.02 µM) | 25 µg/mL (≈ 56.1 µM) | 0 | 0.2
C[C@@H](O)[C@H]1C(=O)N2C(C(=O)O)=C(S[C@@H]3CN[C@@H](c4ccc([C@H](N)CC(N)=O)cc4)C3)[C@H](C)[C@H]12 | < 0.006 µg/mL | 1.56 µg/mL (≈ 3.29 µM) | 0.025 µg/mL (≈ 0.0527 µM) | 1.56 µg/mL (≈ 3.29 µM) | 1.56 µg/mL (≈ 3.29 µM) | 1.56 µg/mL (≈ 3.29 µM) | 0 | 0.27
C[C@@H](O)[C@H]1C(=O)N2C(C(=O)O)=C(S[C@@H]3CN[C@@H](c4cccc(CN)c4)C3)[C@H](C)[C@H]12 | < 0.006 µg/mL | 3.13 µg/mL (≈ 7.5 µM) | 0.1 µg/mL (≈ 0.24 µM) | 1.56 µg/mL (≈ 3.74 µM) | 0.78 µg/mL (≈ 1.87 µM) | 6.25 µg/mL (≈ 15 µM) | 5 | 0.16
C[C@@H](O)[C@H]1C(=O)N2C(C(=O)O)=C(S[C@@H]3CN[C@@H](c4ccc(CN=C(N)N)cc4)C3)[C@H](C)[C@H]12 | < 0.006 µg/mL | 0.78 µg/mL (≈ 1.7 µM) | 0.012 µg/mL (≈ 0.0261 µM) | 1.56 µg/mL (≈ 3.39 µM) | 0.78 µg/mL (≈ 1.7 µM) | 3.13 µg/mL (≈ 6.81 µM) |  | 
CNCc1ccc([C@H]2C[C@H](SC3=C(C(=O)O)N4C(=O)[C@H]([C@@H](C)O)[C@H]4[C@H]3C)CN2)o1 | < 0.006 µg/mL | 1.56 µg/mL (≈ 3.7 µM) | 0.025 µg/mL (≈ 0.0593 µM) | 3.13 µg/mL (≈ 7.43 µM) | 1.56 µg/mL (≈ 3.7 µM) | 12.5 µg/mL (≈ 29.7 µM) |  | 0.1
CC(C)NCc1ccc([C@H]2C[C@H](SC3=C(C(=O)O)N4C(=O)[C@H]([C@@H](C)O)[C@H]4[C@H]3C)CN2)cc1 | < 0.006 µg/mL | 1.56 µg/mL (≈ 3.39 µM) | 0.05 µg/mL (≈ 0.109 µM) | 1.56 µg/mL (≈ 3.39 µM) | 0.78 µg/mL (≈ 1.7 µM) | 6.25 µg/mL (≈ 13.6 µM) |  | 
CNCc1ccc([C@H]2C[C@H](SC3=C(C(=O)O)N4C(=O)[C@H]([C@@H](C)O)[C@H]4[C@H]3C)CN2)s1 | < 0.006 µg/mL | 3.13 µg/mL (≈ 7.15 µM) | 0.025 µg/mL (≈ 0.0571 µM) | 1.56 µg/mL (≈ 3.57 µM) | 1.56 µg/mL (≈ 3.57 µM) | 3.13 µg/mL (≈ 7.15 µM) | 3 | 0.35
CN[C@H](CC(C)C)C(=O)N[C@H]1C(=O)N[C@@H](CC(N)=O)C(=O)N[C@H]2C(=O)N[C@H]3C(=O)N[C@H](C(=O)N[C@H](C(=O)O)c4cc(O)cc(O)c4-c4cc3ccc4O)[C@H](O)c3ccc(c(Cl)c3)Oc3cc2cc(c3O[C@@H]2O[C@H](CO)[C@@H](O)[C@H](O)[C@H]2O[C@H]2C[C@](C)(N)[C@H](O)[C@H](C)O2)Oc2ccc(cc2Cl)[C@H]1O [VANCOMYCIN] | 0.39 µg/mL (≈ 0.269 µM) |  | > 100 µg/mL | 0.78 µg/mL (≈ 0.538 µM) | > 100 µg/mL | > 100 µg/mL |  | 
C[C@@H](O)[C@H]1C(=O)N2C(C(=O)O)=C(S[C@@H]3CN[C@@H](c4ccc(CCN)cc4)C3)[C@H](C)[C@H]12 | < 0.006 µg/mL | 3.13 µg/mL (≈ 7.25 µM) | 0.025 µg/mL (≈ 0.0579 µM) | 1.56 µg/mL (≈ 3.61 µM) | 0.78 µg/mL (≈ 1.81 µM) | 6.25 µg/mL (≈ 14.5 µM) | 3 | 0.26
C[C@@H](O)[C@H]1C(=O)N2C(C(=O)O)=C(S[C@@H]3CN[C@@H](c4ccc([C@@H](N)CC(N)=O)cc4)C3)[C@H](C)[C@H]12 | < 0.006 µg/mL | 1.56 µg/mL (≈ 3.29 µM) | 0.025 µg/mL (≈ 0.0527 µM) | 1.56 µg/mL (≈ 3.29 µM) | 0.78 µg/mL (≈ 1.64 µM) | 1.56 µg/mL (≈ 3.29 µM) | 0 | 0.27
C/C(N)=N/Cc1ccc([C@H]2C[C@H](SC3=C(C(=O)O)N4C(=O)[C@H]([C@@H](C)O)[C@H]4[C@H]3C)CN2)cc1 | < 0.006 µg/mL | 0.78 µg/mL (≈ 1.7 µM) | 0.05 µg/mL (≈ 0.109 µM) | 1.56 µg/mL (≈ 3.4 µM) | 1.56 µg/mL (≈ 3.4 µM) | 6.25 µg/mL (≈ 13.6 µM) |  | 0.25
C[C@@H](O)[C@H]1C(=O)N2C(C(=O)O)=C(S[C@@H]3CN[C@@H](c4ccc(CSC(=N)N)cc4)C3)[C@H](C)[C@H]12 | < 0.006 µg/mL | 1.56 µg/mL (≈ 3.27 µM) | 0.05 µg/mL (≈ 0.105 µM) | 1.56 µg/mL (≈ 3.27 µM) | 1.56 µg/mL (≈ 3.27 µM) | 12.5 µg/mL (≈ 26.2 µM) | 3 | 0.3
C[C@@H](O)[C@H]1C(=O)N2C(C(=O)O)=C(SCCNC=N)C[C@H]12.O | < 0.006 µg/mL | 50 µg/mL | 0.1 µg/mL | 50 µg/mL | 1.56 µg/mL | 3.13 µg/mL | 5 | 1
C[C@@H](O)[C@H]1C(=O)N2C(C(=O)O)=C(S[C@@H]3CN[C@@H](c4ccc(CN)c5ccccc45)C3)[C@H](C)[C@H]12 | < 0.006 µg/mL | 0.78 µg/mL (≈ 1.67 µM) | 0.05 µg/mL (≈ 0.107 µM) | 1.56 µg/mL (≈ 3.34 µM) | 6.25 µg/mL (≈ 13.4 µM) | > 25 µg/mL | 5 | 0.16
CC(N)c1ccc([C@H]2C[C@H](SC3=C(C(=O)O)N4C(=O)[C@H]([C@@H](C)O)[C@H]4[C@H]3C)CN2)cc1 (stereo partly drawn) | < 0.006 µg/mL | 0.78 µg/mL (≈ 1.81 µM) | 0.025 µg/mL (≈ 0.0579 µM) | 1.56 µg/mL (≈ 3.61 µM) | 0.78 µg/mL (≈ 1.81 µM) | 3.13 µg/mL (≈ 7.25 µM) | 0 | 0.55
C[C@@H](O)[C@H]1C(=O)N2C(C(=O)O)=C(S[C@@H]3CN[C@@H](c4ccc(CNCC(N)=O)cc4)C3)[C@H](C)[C@H]12 | < 0.006 µg/mL | 1.56 µg/mL (≈ 3.29 µM) | 0.025 µg/mL (≈ 0.0527 µM) | 3.13 µg/mL (≈ 6.6 µM) | 1.56 µg/mL (≈ 3.29 µM) | 6.25 µg/mL (≈ 13.2 µM) |  | 0.31
C[C@@H](O)[C@H]1C(=O)N2C(C(=O)O)=C(S[C@@H]3CN[C@@H](c4ccc(C(N)C(N)=O)cc4)C3)[C@H](C)[C@H]12 (stereo partly drawn) | < 0.006 µg/mL | 3.13 µg/mL (≈ 6.8 µM) | 0.025 µg/mL (≈ 0.0543 µM) | 3.13 µg/mL (≈ 6.8 µM) | 1.56 µg/mL (≈ 3.39 µM) | 6.25 µg/mL (≈ 13.6 µM) | 0 | 0.32
C=CCC(N)c1ccc([C@H]2C[C@H](SC3=C(C(=O)O)N4C(=O)[C@H]([C@@H](C)O)[C@H]4[C@H]3C)CN2)cc1 (stereo partly drawn) | < 0.006 µg/mL | 3.13 µg/mL (≈ 6.84 µM) | 0.025 µg/mL (≈ 0.0546 µM) | 1.56 µg/mL (≈ 3.41 µM) | 1.56 µg/mL (≈ 3.41 µM) | 12.5 µg/mL (≈ 27.3 µM) | 0 | 0.29
C[C@@H](O)[C@H]1C(=O)N2C(C(=O)O)=C(S[C@@H]3CN[C@@H](c4ccc(CNCCO)cc4)C3)[C@H](C)[C@H]12 | < 0.006 µg/mL | 1.56 µg/mL (≈ 3.38 µM) | 0.05 µg/mL (≈ 0.108 µM) | 1.56 µg/mL (≈ 3.38 µM) | 0.78 µg/mL (≈ 1.69 µM) | 6.25 µg/mL (≈ 13.5 µM) |  | 0.31
C[C@@H](O)[C@H]1C(=O)N2C(C(=O)O)=C(S[C@@H]3CN[C@@H](c4ccc(CN)cc4)C3)[C@H](C)[C@H]12 | < 0.006 µg/mL | 1.56 µg/mL (≈ 3.74 µM) | 0.025 µg/mL (≈ 0.0599 µM) | 0.78 µg/mL (≈ 1.87 µM) | 0.39 µg/mL (≈ 0.934 µM) | 3.13 µg/mL (≈ 7.5 µM) | 5 | 0.29
CNCc1ccc([C@H]2C[C@H](SC3=C(C(=O)O)N4C(=O)[C@H]([C@@H](C)O)[C@H]4[C@H]3C)CN2)cc1 | < 0.006 µg/mL | 1.56 µg/mL (≈ 3.61 µM) | 0.025 µg/mL (≈ 0.0579 µM) | 0.78 µg/mL (≈ 1.81 µM) | 0.39 µg/mL (≈ 0.904 µM) | 1.56 µg/mL (≈ 3.61 µM) | 0 | 0.25
C[C@@H](O)[C@H]1C(=O)N2C(C(=O)O)=C(S[C@@H]3CN[C@@H](c4ccc(CN)s4)C3)[C@H](C)[C@H]12 | < 0.006 µg/mL | 1.56 µg/mL (≈ 3.68 µM) | 0.025 µg/mL (≈ 0.059 µM) | 1.56 µg/mL (≈ 3.68 µM) | 0.78 µg/mL (≈ 1.84 µM) | 3.13 µg/mL (≈ 7.39 µM) | 5 | 0.84

Reference: ChEMBL document CHEMBL1132752, “Structure-activity relationships of trans-3,5-disubstituted pyrrolidinylthio-1beta-methylcarbapenems. Part 2: J-111,225, J-114,870, J-114,871 and related compounds” (2000)
